SMILES strings stand for the structures.

For data set [1] the following is noted: metabolised to a less active sulfoxide, excreted via the kidneys; cited from earlier work.
The test system of data set [2] is Human PBMCs stimulated with tetanus toxoid (CD4 T-cells). The class given is cell-based.
Data set [3] deals with established HDM allergic airway inflammation. Kind of data set: Established HDM allergy model, treatment strategy 2. The class given is in vivo, C57bl/6 mice. The conditions noted are these: 25 μg enoximone admixed with 5 μg HDM. The method, then: (§1) To induce airway inflammation, mice were anaesthetized with isofluorane and treated intratracheally (i.t.) with 1-10 μg house dust mite (HDM; Greer Laboratories) allergen extract in 80 μL phosphate buffered saline (PBS) on day 0 or using PBS only. Ten days later, anesthetized mice were challenged with 1-10 μg HDM in 50 μL PBS intranasally (i.n.) for 5 consecutive days. Mice were sacrificed 24 hr after last challenge and broncho alveolar lavage was performed by flushing the lungs 3 times with 1 ml PBS containing Ethylenediaminetetraacetic acid (EDTA, Sigma-Aldrich).
C57bl/6 mice were sensitized with 10 μg HDM on day 0 and challenged with 5 μg HDM for 5 days on day 10-14. Then mice were treated with 5 μg HDM admixed with 25 μg enoximone or diluent for 5 days on days 15-19. 24 hr after last challenge measurements were performed.
Next, we attempted to determine whether enoximone is potent enough to suppress allergic inflammation when asthma is already fully established. Animals were challenged with an additional session of 5 challenges with HDM mimicking the situation in asthma patients. Asthma mice and PBS controls were then challenged again on five successive days by instilling a droplet of 50 μl PBS (PBS PBS dil), or HDM (5 μg) in 50 μl PBS (HDM HDM dil) or HDM (5 μg) in 50 μl PBS admixed with enoximone (25 μg) (HDM HDM enox)(FIG. 7A).
(A) Experimental HDM asthma design showing intratracheal sensitization (s) of […] or PBS as control and intra nasal challenge (c) with 5 μg HDM followed by challenge and treatment (ct). (B) Quantification of flow cytometric analyses of eosinophils in BAL of PBS treated mice (black bars) and enoximone treated mice (light grey bars). Results are expressed as means±SEM. (C) Quantification of flow cytometric analyses of ILC2s, (D) CD3 and (E) macrophages in BAL. Results are expressed as means±SEM. n=4-8 animals per group. Statistical evaluations were performed only between different treatments of groups. (*p<0.05 or **p<0.01).

The subject of data set [4] is HDM driven allergic airway inflammation. In words: House dust mite (HDM) allergic airway inflammation model, treatment strategy 1 (allergy induction). The conditions noted are these: orally (2.5 and 0.25 μg), treatment during challenge, FIG. 5B. The format is in vivo, C57bl/6 mice.
In data set [5] the test system is HDM allergic airway inflammation. In words: HDM asthma model, lower enoximone treatment frequency. The class given is in vivo, mice. How it is done: as §1
Next we investigate if it is possible to lower the active enoximone treatment frequency when given it admixed to the HDM challenge solution (FIG. 2A). We compare the daily treatment frequency with once in two days (each other day) and once in three days. Mice treated with HDM admixed with diluent show clear eosinophilic airway inflammation (FIG. 2B). […] Moreover along this line also numbers of T-cells drop when treated with enoximone (FIG. 2B). […] Moreover the proportion of IL-4 producing T-cells is lower when enoximone is given less frequently than daily (FIG. 3).
(A) Experimental HDM asthma design showing intratracheal sensitisation (s) of 10 μg HDM or PBS as control and challenge (c) with 10 μg HDM intra nasal. The following schedules were used diluent (d) (5 μl) during challenge (for 5 days ddddd), enoximone (5 μl 5 mg/ml) during challenge (for 5 days eeeee), enoximone once in two days (edede) or (deded) and once in three days enoximone (edded). (B) Total cells and quantification of flow cytometric analyses of eosinophils and CD4 T-cells in BAL of PBS treated (black bars) and several frequencies of enoximone treated mice (gray bars). Results are expressed as means±SEM.
FIG. 3 Quantification of flow cytometric analyses of cytokine producing CD4 T-cells and proportion of IL-4 positive CD4 T-cells in BAL. Results are expressed as means±SEM. n=3-8 animals per group. Statistical evaluations were performed only between different treatments of groups (*p<0.05).

The subject of data set [6] is HDM driven allergic airway inflammation. Kind of data set: House dust mite (HDM) allergic airway inflammation model, treatment strategy 1 (allergy induction). The class given is in vivo, C57bl/6 mice. The method, then: as §1
Different treatment modalities were testes i.e. route and dose. Here we tested the oral versus intratracheal route (FIG. 1) and PBS versus enoximone in a HDM driven allergy model. Enoximone was precipitated from Perfan®. The precipitant was admitted with HDM solution and used as a suspension for intratracheal treatment doses 25 μg and 250 μg or it was used as a suspension admitted in PBS for oral treatment doses 250 μg or 2.5 mg. Mice underwent enoximone treatment only during challenge. Sensitization was performed with 1 μg HDM and challenge with 2.5-5 μg HDM. Twenty-four hours after the last challenge measurements were performed.
Optimal dose of 25 μg enoximone versus diluent (FIG. 5) was admitted with 5 μg HDM solution and used for intratracheal treatment or diluent (10% ethanol+40% glycerol+50% MQ) admitted with 5 μg HDM solution. Controls were treated with enoximone 25 μg admitted with PBS or diluent admitted with PBS. Mice underwent enoximone treatment only during challenge.
(A) Experimental HDM asthma design showing intratracheal sensitization (s) of 1 μg HDM or PBS as control and five intra-nasal challenges (c) with 2.5-5 μg HDM. (B) Quantification of flow cytometric analyses of the indicated populations of eosinophils in bronchoalveolar lavage (BAL) of PBS treated mice (black bars) and enoximone treated mice (white and greyscale bars). Results are expressed as means±SEM. (C) Quantification of flow cytometric analyses of ILC2 numbers in BAL. Results are expressed as means±SEM. Results represent data of one out of 2 experiments with 3-8 animals per group. Statistical evaluations were performed only between different treatments of groups. *p<0.05, **p<0.01).
(A) Experimental HDM asthma design showing intratracheal sensitization (s) of 1 μg HDM or PBS as control and intra nasal challenge (c) with 5 μg HDM. (B) Quantification of flow cytometric analyses of eosinophils in BAL of PBS treated mice (black bars) and enoximone treated mice (light grey bars). Results are expressed as means±SEM. (C) Quantification of flow cytometric analyses of neutrophils and (D) ILC2s in BAL. Results are expressed as means±SEM. n=4-8 animals per group. Statistical evaluations were performed only between different treatments of groups (*p<0.05 or **p<0.01).

[7] abbreviates: oral or intratracheal enoximone.

Take `CSc1ccc(C(=O)c2[nH]c(=O)[nH]c2C)cc1` [enoximone, 1,3-dihydro-4-methyl-5-[4-(methylthio)benzoyl]-2H-imidazol-2-on]: in data set [1], the half life result was “approximately 4 hours”. Moreover, the “proliferation of CD4 positive T-cells (proportion of divided CD4 T-cells)” value in data set [2] is “significantly reduced”. In addition, the “numbers of ILC2s in BAL” value in data set [3] (days 15-19, FIG. 7C) is recorded as “significant reduction”. Further, the “numbers of T-cells in BAL” value in data set [3] (days 15-19, FIG. 7D) is listed as “significant reduction”; in data set [5] (25 μg enoximone admixed with HDM challenge, FIG. 2B), “drop”. Moreover, in data set [3] (days 15-19, FIG. 7E), the “numbers of macrophages in BAL” value is “significant reduction”. Moreover, in data set [3] (days 15-19, started after the first 5 HDM challenges, FIG. 7B), the “eosinophil numbers in BAL” value is recorded as “strong significant reductions”. Also, the “eosinophil numbers in BAL, HDM/PBS treated mice compared to enoximone treated mice” value in data set [4] is reported as “significantly higher”; in data set [6] (intratracheally (25 and 250 μg), treatment during challenge, FIG. 5B), “significantly higher”. The “number of cytokine (IL-4, IL-5, IL-13, IL-17 and IFNγ) producing T-cells in BAL” value in data set [5] (25 μg enoximone admixed with HDM challenge, FIG. 3) is reported as “drop in number”. For the same molecule, the eosinophilic inflammation entry is listed as “clear reduction” in data set [5] (25 μg enoximone admixed with HDM challenge, given every day, FIG. 2B); “clear reduction” in data set [5] (25 μg enoximone admixed with HDM challenge, once in three days, FIG. 2B); “clear reduction” in data set [5] (25 μg enoximone admixed with HDM challenge, once in two days (each other day), FIG. 2B). Further, the “proportion of IL-4 producing T-cells” value in data set [5] (enoximone given less frequently than daily, FIG. 3) is “lower”. Further, the “neutrophil numbers in BAL” value in data set [6] (25 μg enoximone intratracheally, FIG. 6C, same pattern as eosinophils) was “the same dynamic is observed”. For the same molecule, the “ILC2 cell numbers in BAL” value in data set [6] (25 μg enoximone intratracheally, FIG. 6D, same pattern as eosinophils) is reported as “the same dynamic is observed”. The “numbers of BAL eosinophils, HDM/diluent treated mice compared to enoximone treated mice” value in data set [6] (25 μg enoximone solution admitted to 5 μg HDM, intratracheally, FIG. 6B) is reported as “significantly higher”. In addition, the “allergic airway inflammation in control mice” value in data set [6] (PBS/enoximone (25 μg) control mice, no HDM) was “no signs of allergic airway inflammation”. Also, in data set [6] (PBS/enoximone control mice, no HDM), the “eosinophilic airway inflammation in control mice” value is listed as “no eosinophilic airway inflammation”. Moreover, the “DCs, PBS treated allergy mice compared to enoximone treated mice” value in data set [6] (setting [7]) is “significantly higher in the PBS treated allergy mice”. Further, the “Neutrophils, PBS treated allergy mice compared to enoximone treated mice” value in data set [6] (setting [7]) is “significantly higher in the PBS treated allergy mice”. Further, in data set [6] (setting [7]), the “T-cells, PBS treated allergy mice compared to enoximone treated mice” value was “significantly higher in the PBS treated allergy mice”. Besides, the “ILC2 numbers in BAL” value in data set [6] (oral or intratracheal enoximone, FIG. 5C) is listed as “reduced”.

(Values after patent publication US10071077B2, “Use of enoximone in the treatment of atopic immune-related disorders, in pharmaceutical composition as well as in pharmaceutical preparation” (BREAKTHROUGH MEDICAL RESEARCH B.V., priority 2014, dated 2018).)
